{"source": "patent US20230165831A1", "about": "“METHOD AND COMPOSITION FOR RENDERING CANCER CELLS SUSCEPTIBLE TO TREATMENT BY TARGETED ONCOGENETIC DRIVERS” (IMPACT BIOLIFE SCIENCE, INC., priority 2021, published 2023)", "key": {"[1]": {"tested_on": "breast cancer line T47D cells", "test": "CTG (CellTiter-Glo) cell viability assay, 6×6 combo matrix, 72 h, T47D;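 note: luminescence read-out after 72 h at 37 °C under 5% CO2, with medium-only wells as blanks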", "details": "Homo sapiens", "procedure": "(§1) To measure the cell inhibition effect of compounds and synergy effect of test articles on ten (10) cell lines using standard CTG assay.\n(§2) 7) Using complete cell medium, adjust the volume of the suspension to achieve a cell concentration.\n(§3) b. A549, T47D, SK-OV-3, MKN45, SK-Hep-1, HT-29, Capan-1, 786-O and LNCaP cell line, for compounds and vehicle groups, the seeding density of cell lines is 3000 cells/80 µL per well. For blank groups, add 100 µL medium. For PBS groups, add 100 µL PBS.\n(§4) 8) Incubate the U87MG, A549, T47D, SK-OV-3, MKN45, SK-Hep-1, HT-29, Capan-1, 786-O and LNCaP cells overnight at 37° C./5% CO2.\n(§5) Solid compound of cis-platinum was solubilized in PBS to a stock solution of 3.333 mM.\n(§6) Final volume is 100 µL per well at this point.\n(§7) 5) Incubate the plates at 37° C./5% CO2 for 72 hours.\n(§8) 1) Incubate the plates at room temperature and away from light for 30 minutes.\n(§9) 3) Add 100 µL /well of CellTiter-Glo® Reagent in each well. Avoid light.\n(§10) 4) Mix contents for 2 minutes on an orbital shaker.\n(§11) 5) Incubate plate at room temperature for 10 minutes to stabilize the luminescent signal.\n6) Read plates in Envision."}, "[2]": {"tested_on": "colorectal cancer line HT29 cells", "test": "CTG (CellTiter-Glo) cell viability assay, 6×6 combo matrix, 72 h, HT29;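 note: cells exposed to compounds for 72 hours at 37 °C under 5% CO2, then viability read as luminescence after adding CellTiter-Glo Reagent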", "details": "HT29", "procedure": "as §1, §2, §3, §4, §5, §6, §7, §8, §9, §10, §11\n6) Read plates in Envision."}, "[3]": {"tested_on": "lung adenocarcinoma line A549 cells", "test": "CTG (CellTiter-Glo) cell viability assay, 6×6 combo matrix, 72 h, A549;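 note: luminescent ATP readout with CellTiter-Glo after compound exposure, used to assess growth inhibition and combination synergy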", "details": "for Relatively Cell inhibition of vehicle control(%): A549", "procedure": "as §1, §2\nA549, T47D, SK-OV-3, MKN45, SK-Hep-1, HT-29, Capan-1, 786-O and LNCaP cell line, for compounds and vehicle groups, the seeding density of cell lines is 3000 cells/80 µL per well. For blank groups, add 100 µL medium. For PBS groups, add 100 µL PBS.\nas §4, §5, §6, §7, §8, §9, §10, §11\n6) Read plates in Envision."}, "[4]": {"tested_on": "glioblastoma line U87MG cells", "test": "CTG (CellTiter-Glo) cell viability assay, 6×6 combo matrix, 72 h, U87MG;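 note: U87MG cells seeded at 2000 per well, exposed 72 h, viability read by CellTiter-Glo luminescence, inhibition expressed relative to vehicle-treated wells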", "details": "Homo sapiens, U-87 MG", "procedure": "as §1, §2\nU87MG cell lines, for compounds and vehicle groups, the seeding density of cell lines is 2000 cells/80 µL per well. For blank groups, add 100 µL medium. For PBS groups, add 100 µL PBS.\nas §4, §5, §6, §7, §8, §9, §10, §11\n6) Read plates in Envision."}, "[5]": {"tested_on": "prostate adenocarcinoma line LNCap cells", "test": "CTG (CellTiter-Glo) cell viability assay, 6×6 combo matrix, 72 h, LNCaP;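 note: luminescence signal read after adding CellTiter-Glo reagent, with cells exposed to compounds for 72 h at 37 °C under 5% CO2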", "details": "Homo sapiens, LNCaP", "procedure": "as §1, §2, §3, §4, §5, §6, §7, §8, §9, §10, §11\n6) Read plates in Envision."}, "[6]": {"details": "Homo sapiens, A549, read-out: Relatively Cell inhibition of vehicle control(%)"}, "[7]": {"details": "read-out: Relatively Cell inhibition of vehicle control(%), myricetin 0.8 µM only (cisplatin plate)"}, "[8]": {"details": "read-out: Relatively Cell inhibition of vehicle control(%), myricetin 0.8 µM only (doxorubicin plate)"}, "[9]": {"details": "read-out: Relatively Cell inhibition of vehicle control(%), myricetin 0.8 µM only (taxol plate)"}, "[10]": {"details": "read-out: Relatively Cell inhibition of vehicle control(%), myricetin 0.8 µM only (topotecan plate)"}}, "note": "Read-outs that look alike come from different tables or passages of the source.", "data": [{"compound": "O=c1c(O)c(-c2cc(O)c(O)c(O)c2)oc2cc(O)cc(O)c12", "note": "[myricetin]", "values": [{"measurement": "inhibition at 0.8 µM", "setting": "[1]; read-out: Relatively Cell inhibition of vehicle control(%), T47D, 0.8 µM myricetin only (cisplatin 0)", "result": -1.72, "unit": "%"}, {"measurement": "inhibition at 0.8 µM", "setting": "[1]; read-out: Relatively Cell inhibition of vehicle control(%), T47D, 0.8 µM myricetin only (doxorubicin 0)", "result": 8.68, "unit": "%"}, {"measurement": "inhibition at 0.8 µM", "setting": "[1]; read-out: Relatively Cell inhibition of vehicle control(%), T47D, 0.8 µM myricetin only (taxol 0)", "result": 6.31, "unit": "%"}, {"measurement": "inhibition at 0.8 µM", "setting": "[1]; read-out: Relatively Cell inhibition of vehicle control(%), T47D, 0.8 µM myricetin only (topotecan 0)", "result": 1.93, "unit": "%"}, {"measurement": "inhibition at 4 µM", "setting": "[1]; read-out: Relatively Cell inhibition of vehicle control(%), T47D, 4 µM myricetin only (cisplatin 0)", "result": -0.88, "unit": "%"}, {"measurement": "inhibition at 4 µM", "setting": "[1]; read-out: Relatively Cell inhibition of vehicle control(%), T47D, 4 µM myricetin only (doxorubicin 0)", "result": 1.01, "unit": "%"}, {"measurement": "inhibition at 4 µM", "setting": "[1]; read-out: Relatively Cell inhibition of vehicle control(%), T47D, 4 µM myricetin only (taxol 0)", "result": 0.2, "unit": "%"}, {"measurement": "inhibition at 4 µM", "setting": "[1]; read-out: Relatively Cell inhibition of vehicle control(%), T47D, 4 µM myricetin only (topotecan 0)", "result": -2.25, "unit": "%"}, {"measurement": "inhibition at 20 µM", "setting": "[1]; read-out: Relatively Cell inhibition of vehicle control(%), T47D, 20 µM myricetin only (cisplatin 0)", "result": 2.08, "unit": "%"}, {"measurement": "inhibition at 20 µM", "setting": "[1]; read-out: Relatively Cell inhibition of vehicle control(%), T47D, 20 µM myricetin only (doxorubicin 0)", "result": 8.28, "unit": "%"}, {"measurement": "inhibition at 20 µM", "setting": "[1]; read-out: Relatively Cell inhibition of vehicle control(%), T47D, 20 µM myricetin only (taxol 0)", "result": 5.67, "unit": "%"}, {"measurement": "inhibition at 20 µM", "setting": "[1]; read-out: Relatively Cell inhibition of vehicle control(%), T47D, 20 µM myricetin only (topotecan 0)", "result": 3.54, "unit": "%"}, {"measurement": "inhibition at 100 µM", "setting": "[1]; read-out: Relatively Cell inhibition of vehicle control(%), T47D, 100 µM myricetin only (cisplatin 0)", "result": 25.4, "unit": "%"}, {"measurement": "inhibition at 100 µM", "setting": "[1]; read-out: Relatively Cell inhibition of vehicle control(%), T47D, 100 µM myricetin only (doxorubicin 0)", "result": 24.5, "unit": "%"}, {"measurement": "inhibition at 100 µM", "setting": "[1]; read-out: Relatively Cell inhibition of vehicle control(%), T47D, 100 µM myricetin only (taxol 0)", "result": 30, "unit": "%"}, {"measurement": "inhibition at 100 µM", "setting": "[1]; read-out: Relatively Cell inhibition of vehicle control(%), T47D, 100 µM myricetin only (topotecan 0)", "result": 22.2, "unit": "%"}, {"measurement": "Relatively Cell inhibition of vehicle control(%)", "setting": "[2]; Myr 0.8 µM only (Cis 0)", "result": 3.87, "unit": "%"}, {"measurement": "Relatively Cell inhibition of vehicle control(%)", "setting": "[2]; Myr 0.8 µM only (Dox 0)", "result": -1.09, "unit": "%"}, {"measurement": "Relatively Cell inhibition of vehicle control(%)", "setting": "[2]; Myr 0.8 µM only (Tax 0)", "result": -1.36, "unit": "%"}, {"measurement": "Relatively Cell inhibition of vehicle control(%)", "setting": "[2]; Myr 0.8 µM only (Top 0)", "result": -0.48, "unit": "%"}, {"measurement": "Relatively Cell inhibition of vehicle control(%)", "setting": "[2]; Myr 4 µM only (Cis 0)", "result": 6.56, "unit": "%"}, {"measurement": "Relatively Cell inhibition of vehicle control(%)", "setting": "[2]; Myr 4 µM only (Dox 0)", "result": -0.67, "unit": "%"}, {"measurement": "Relatively Cell inhibition of vehicle control(%)", "setting": "[2]; Myr 4 µM only (Tax 0)", "result": 0.80, "unit": "%"}, {"measurement": "Relatively Cell inhibition of vehicle control(%)", "setting": "[2]; Myr 4 µM only (Top 0)", "result": 3.33, "unit": "%"}, {"measurement": "Relatively Cell inhibition of vehicle control(%)", "setting": "[2]; Myr 20 µM only (Cis 0)", "result": 24.55, "unit": "%"}, {"measurement": "Relatively Cell inhibition of vehicle control(%)", "setting": "[2]; Myr 20 µM only (Dox 0)", "result": 23.37, "unit": "%"}, {"measurement": "Relatively Cell inhibition of vehicle control(%)", "setting": "[2]; Myr 20 µM only (Tax 0)", "result": 32.84, "unit": "%"}, {"measurement": "Relatively Cell inhibition of vehicle control(%)", "setting": "[2]; Myr 20 µM only (Top 0)", "result": 24.77, "unit": "%"}, {"measurement": "Relatively Cell inhibition of vehicle control(%)", "setting": "[2]; Myr 100 µM only (Cis 0)", "result": 90.42, "unit": "%"}, {"measurement": "Relatively Cell inhibition of vehicle control(%)", "setting": "[2]; Myr 100 µM only (Dox 0)", "result": 74.39, "unit": "%"}, {"measurement": "Relatively Cell inhibition of vehicle control(%)", "setting": "[2]; Myr 100 µM only (Tax 0)", "result": 88.39, "unit": "%"}, {"measurement": "Relatively Cell inhibition of vehicle control(%)", "setting": "[2]; Myr 100 µM only (Top 0)", "result": 87.04, "unit": "%"}, {"measurement": "inhibition at 0.8 µM", "setting": "[3]; [6]", "result": -3.15, "unit": "%"}, {"measurement": "inhibition at 4 µM", "setting": "[3]; [6]", "result": 0.85, "unit": "%"}, {"measurement": "inhibition at 20 µM", "setting": "[3]; [6]", "result": 7.42, "unit": "%"}, {"measurement": "inhibition at 100 µM", "setting": "[3]; [6]", "result": 40.3, "unit": "%"}, {"measurement": "Relatively Cell inhibition of vehicle control(%)", "setting": "[3]; Myr 0.8 µM only (taxol matrix)", "result": -0.98, "unit": "%"}, {"measurement": "Relatively Cell inhibition of vehicle control(%)", "setting": "[3]; Myr 4 µM only (taxol matrix)", "result": 3.22, "unit": "%"}, {"measurement": "Relatively Cell inhibition of vehicle control(%)", "setting": "[3]; Myr 20 µM only (taxol matrix)", "result": 9.01, "unit": "%"}, {"measurement": "Relatively Cell inhibition of vehicle control(%)", "setting": "[3]; Myr 100 µM only (taxol matrix)", "result": 41.11, "unit": "%"}, {"measurement": "inhibition at 0.8 µM", "setting": "[4]; [7]", "result": 1.25, "unit": "%"}, {"measurement": "inhibition at 0.8 µM", "setting": "[4]; [8]", "result": -1.19, "unit": "%"}, {"measurement": "inhibition at 0.8 µM", "setting": "[4]; [9]", "result": 2.29, "unit": "%"}, {"measurement": "inhibition at 0.8 µM", "setting": "[4]; [10]", "result": 3.94, "unit": "%"}, {"measurement": "inhibition at 4 µM", "setting": "[4]; read-out: Relatively Cell inhibition of vehicle control(%), myricetin 4 µM only (cisplatin plate)", "result": -0.71, "unit": "%"}, {"measurement": "inhibition at 4 µM", "setting": "[4]; read-out: Relatively Cell inhibition of vehicle control(%), myricetin 4 µM only (doxorubicin plate)", "result": 1.02, "unit": "%"}, {"measurement": "inhibition at 4 µM", "setting": "[4]; read-out: Relatively Cell inhibition of vehicle control(%), myricetin 4 µM only (taxol plate)", "result": 0.66, "unit": "%"}, {"measurement": "inhibition at 4 µM", "setting": "[4]; read-out: Relatively Cell inhibition of vehicle control(%), myricetin 4 µM only (topotecan plate)", "result": 3.52, "unit": "%"}, {"measurement": "inhibition at 20 µM", "setting": "[4]; read-out: Relatively Cell inhibition of vehicle control(%), myricetin 20 µM only (cisplatin plate)", "result": 9.21, "unit": "%"}, {"measurement": "inhibition at 20 µM", "setting": "[4]; read-out: Relatively Cell inhibition of vehicle control(%), myricetin 20 µM only (doxorubicin plate)", "result": 7.98, "unit": "%"}, {"measurement": "inhibition at 20 µM", "setting": "[4]; read-out: Relatively Cell inhibition of vehicle control(%), myricetin 20 µM only (taxol plate)", "result": 11.1, "unit": "%"}, {"measurement": "inhibition at 20 µM", "setting": "[4]; read-out: Relatively Cell inhibition of vehicle control(%), myricetin 20 µM only (topotecan plate)", "result": 8.45, "unit": "%"}, {"measurement": "inhibition at 100 µM", "setting": "[4]; read-out: Relatively Cell inhibition of vehicle control(%), myricetin 100 µM only (cisplatin plate)", "result": 46.8, "unit": "%"}, {"measurement": "inhibition at 100 µM", "setting": "[4]; read-out: Relatively Cell inhibition of vehicle control(%), myricetin 100 µM only (doxorubicin plate)", "result": 32.3, "unit": "%"}, {"measurement": "inhibition at 100 µM", "setting": "[4]; read-out: Relatively Cell inhibition of vehicle control(%), myricetin 100 µM only (taxol plate)", "result": 45.7, "unit": "%"}, {"measurement": "inhibition at 100 µM", "setting": "[4]; read-out: Relatively Cell inhibition of vehicle control(%), myricetin 100 µM only (topotecan plate)", "result": 43.4, "unit": "%"}, {"measurement": "inhibition at 0.8 µM", "setting": "[5]; [7]", "result": -1.65, "unit": "%"}, {"measurement": "inhibition at 0.8 µM", "setting": "[5]; [8]", "result": -0.32, "unit": "%"}, {"measurement": "inhibition at 0.8 µM", "setting": "[5]; [9]", "result": -2.06, "unit": "%"}, {"measurement": "inhibition at 0.8 µM", "setting": "[5]; [10]", "result": -2.79, "unit": "%"}]}]}
